# From ChEMBL document CHEMBL1201862, “PubChem BioAssay data set” (2004)
#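 All cell lines were grown in 96-well plates and treated with compound for 48 hours. GI50 is the concentration that inhibits growth by half.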 Calls of active or inactive are those of the source. No stated cut-off is given here; in the data, active = GI50 up to about 1.1 µM and inactive = higher.
# Tests used:
# Assay in all cases: NCI tumour cell line growth inhibition, 48 h
# [1] = tested on: KM12
# [2] = tested on: A549
# [3] = tested on: NCI-H23
# [4] = tested on: ACHN
# [5] = tested on: NCI-H226
# [6] = tested on: OVCAR-3
# [7] = tested on: HCT-15
# [8] = tested on: SN12C
# [9] = tested on: SF-268
# [10] = tested on: RPMI-8226
# [11] = tested on: LOX IMVI
# [12] = tested on: UO-31
# [13] = tested on: SK-OV-3
# [14] = tested on: SW-620
# [15] = tested on: Malme-3M
# [16] = tested on: HCC 2998
# [17] = tested on: A498
Compound,GI50 [1],GI50 [2],GI50 [3],GI50 [4],GI50 [5],GI50 [6],GI50 [7],GI50 [8],GI50 [9],GI50 [10],GI50 [11],GI50 [12],GI50 [13],GI50 [14],GI50 [15],GI50 [16],GI50 [17]
O=C(c1ccc(Cl)cc1)N(C(=S)N1CCN(c2ccccn2)CC1)c1ccccc1,> 100 µM (inactive),94.2 µM (inactive),> 100 µM (inactive),> 100 µM (inactive),24.9 µM (inactive),66.4 µM (inactive),> 100 µM,> 100 µM (inactive),> 100 µM (inactive),82.4 µM (inactive),> 100 µM (inactive),68.9 µM (inactive),> 100 µM (inactive),> 100 µM (inactive),> 100 µM (inactive),,
N#CC(C(=O)/C(=N/N)C(C#N)c1ccccc1)c1ccccc1 (configuration not stated),> 100 µM (inactive),> 100 µM (inactive),> 100 µM (inactive),> 100 µM (inactive),> 100 µM (inactive),> 100 µM (inactive),> 100 µM,> 100 µM (inactive),> 100 µM (inactive),> 100 µM (inactive),> 100 µM (inactive),> 100 µM (inactive),> 100 µM (inactive),> 100 µM (inactive),> 100 µM (inactive),> 100 µM (inactive),
c1cncc(C2c3[nH]c4ccccc4c3CCN2CCN2CCCCC2)c1 (configuration not stated),> 100 µM (inactive),> 100 µM (inactive),> 100 µM (inactive),> 100 µM (inactive),,> 100 µM (inactive),> 100 µM,> 100 µM (inactive),> 100 µM (inactive),62.8 µM (inactive),> 100 µM (inactive),38.3 µM (inactive),> 100 µM (inactive),> 100 µM (inactive),,> 100 µM (inactive),70.8 µM (inactive)
CC(=O)O[C@H]1CCC2[C@@H]3CCC4c5nonc5CC[C@]4(C)C3CC[C@@]21C (some centres not stated),> 10 µM (inactive),> 10 µM (inactive),> 10 µM (inactive),88.7 µM (inactive),> 10 µM (inactive),,> 10 µM,> 10 µM (inactive),> 10 µM (inactive),,> 10 µM (inactive),> 10 µM (inactive),> 10 µM (inactive),> 10 µM (inactive),> 10 µM (inactive),> 10 µM (inactive),> 10 µM (inactive)
CCOC(=O)/C(=C/c1cccc(C#N)c1)N(CC)CC,> 100 µM (inactive),> 100 µM (inactive),> 100 µM (inactive),> 100 µM (inactive),> 100 µM (inactive),,> 100 µM,> 100 µM (inactive),> 100 µM (inactive),> 100 µM (inactive),> 100 µM (inactive),> 100 µM (inactive),> 100 µM (inactive),> 100 µM (inactive),> 100 µM (inactive),> 100 µM (inactive),> 100 µM (inactive)
N#C/C(=C1\OC(=N)C(c2ccc(Cl)cc2Cl)C1=O)c1ccc(Cl)cc1Cl (configuration not stated),,> 100 µM (inactive),> 100 µM (inactive),> 100 µM (inactive),> 100 µM (inactive),> 100 µM (inactive),> 100 µM,> 100 µM (inactive),> 100 µM (inactive),> 100 µM (inactive),> 100 µM (inactive),56.6 µM (inactive),> 100 µM (inactive),> 100 µM (inactive),> 100 µM (inactive),,> 100 µM (inactive)
O=c1[nH][nH]c(=O)[nH]1,> 100 µM (inactive),> 100 µM (inactive),> 100 µM (inactive),,> 100 µM (inactive),> 100 µM (inactive),> 100 µM,,> 100 µM (inactive),> 100 µM (inactive),> 100 µM (inactive),> 100 µM (inactive),> 100 µM (inactive),> 100 µM (inactive),> 100 µM (inactive),> 100 µM (inactive),
COc1ccc(C2=NN(c3ccccc3)C[N+](c3ccc(C)cc3)=N2)cc1,> 10 µM (inactive),59.7 µM (inactive),41.3 µM (inactive),50.2 µM (inactive),55.3 µM (inactive),23 µM (inactive),51.2 µM,66.5 µM (inactive),70.6 µM (inactive),26.9 µM (inactive),32 µM (inactive),38.3 µM (inactive),,25.6 µM (inactive),48.3 µM (inactive),> 100 µM (inactive),63 µM (inactive)
C=CCC(O)c1cc(OC)ccc1OC (configuration not stated),> 100 µM (inactive),> 100 µM (inactive),,> 100 µM (inactive),> 100 µM (inactive),> 100 µM (inactive),> 100 µM,> 100 µM (inactive),> 100 µM (inactive),> 100 µM (inactive),> 100 µM (inactive),> 100 µM (inactive),> 100 µM (inactive),> 100 µM (inactive),> 100 µM (inactive),> 100 µM (inactive),
